Results on three molecules are retold here after PMC8550792, “Evolution of kinase polypharmacology across HSP90 drug discovery” (Cell Chemical Biology, 2021).

One assay concerns the target T1, ABL2/ARG (Homo sapiens, UniProt P42684).
T1 construct: purchased Reaction Biology (HotSpot contract assay)
In words: HotSpot in vitro kinase radiometric assay. The assay is classed as biochemical. As to conditions: ABL2/ARG, 10uM, ATP 30 uM, Data 1, Data 2; for remaining activity at 10 µM: read-out: % Enzyme Activity (relative to DMSO controls).

For a further assay, the target named is ABL1 (Homo sapiens, UniProt P00519). In words: HotSpot in vitro kinase radiometric assay. The assay is classed as biochemical. Also noted: purchased Reaction Biology (HotSpot contract assay). As to conditions: ABL1, 10uM, ATP 40 uM, Data 1, Data 2; for remaining activity at 10 µM: read-out: % Enzyme Activity (relative to DMSO controls).
A further assay has as its system TRAP1. Also on record: method as in ChEMBL23 (accessed: 23/08/2018). The conditions noted are these: average of reported values; ref ChEMBL23 (accessed: 23/08/2018); cited from earlier work.
A further assay deals with T2, PEAK1 (Homo sapiens, UniProt Q9H792).
T2 construct: purchased Reaction Biology (HotSpot contract assay)
The experiment in a line: HotSpot in vitro kinase radiometric assay. As to conditions: PEAK1, 10uM, ATP 30 uM, Data 1, Data 2; for remaining activity at 10 µM: read-out: % Enzyme Activity (relative to DMSO controls). The assay is classed as biochemical.

In another assay the target is DDR1 (Homo sapiens, UniProt Q08345). In words: HotSpot in vitro kinase radiometric assay. The assay is classed as biochemical. Also noted: purchased Reaction Biology (HotSpot contract assay). The conditions noted are these: for remaining activity at 10 µM: read-out: % Enzyme Activity (relative to DMSO controls).
The target of another assay is T3, PASK (Homo sapiens, UniProt Q96RG2).
T3 construct: purchased Reaction Biology (HotSpot contract assay)
T3 sequence (Q96RG2 whole entry): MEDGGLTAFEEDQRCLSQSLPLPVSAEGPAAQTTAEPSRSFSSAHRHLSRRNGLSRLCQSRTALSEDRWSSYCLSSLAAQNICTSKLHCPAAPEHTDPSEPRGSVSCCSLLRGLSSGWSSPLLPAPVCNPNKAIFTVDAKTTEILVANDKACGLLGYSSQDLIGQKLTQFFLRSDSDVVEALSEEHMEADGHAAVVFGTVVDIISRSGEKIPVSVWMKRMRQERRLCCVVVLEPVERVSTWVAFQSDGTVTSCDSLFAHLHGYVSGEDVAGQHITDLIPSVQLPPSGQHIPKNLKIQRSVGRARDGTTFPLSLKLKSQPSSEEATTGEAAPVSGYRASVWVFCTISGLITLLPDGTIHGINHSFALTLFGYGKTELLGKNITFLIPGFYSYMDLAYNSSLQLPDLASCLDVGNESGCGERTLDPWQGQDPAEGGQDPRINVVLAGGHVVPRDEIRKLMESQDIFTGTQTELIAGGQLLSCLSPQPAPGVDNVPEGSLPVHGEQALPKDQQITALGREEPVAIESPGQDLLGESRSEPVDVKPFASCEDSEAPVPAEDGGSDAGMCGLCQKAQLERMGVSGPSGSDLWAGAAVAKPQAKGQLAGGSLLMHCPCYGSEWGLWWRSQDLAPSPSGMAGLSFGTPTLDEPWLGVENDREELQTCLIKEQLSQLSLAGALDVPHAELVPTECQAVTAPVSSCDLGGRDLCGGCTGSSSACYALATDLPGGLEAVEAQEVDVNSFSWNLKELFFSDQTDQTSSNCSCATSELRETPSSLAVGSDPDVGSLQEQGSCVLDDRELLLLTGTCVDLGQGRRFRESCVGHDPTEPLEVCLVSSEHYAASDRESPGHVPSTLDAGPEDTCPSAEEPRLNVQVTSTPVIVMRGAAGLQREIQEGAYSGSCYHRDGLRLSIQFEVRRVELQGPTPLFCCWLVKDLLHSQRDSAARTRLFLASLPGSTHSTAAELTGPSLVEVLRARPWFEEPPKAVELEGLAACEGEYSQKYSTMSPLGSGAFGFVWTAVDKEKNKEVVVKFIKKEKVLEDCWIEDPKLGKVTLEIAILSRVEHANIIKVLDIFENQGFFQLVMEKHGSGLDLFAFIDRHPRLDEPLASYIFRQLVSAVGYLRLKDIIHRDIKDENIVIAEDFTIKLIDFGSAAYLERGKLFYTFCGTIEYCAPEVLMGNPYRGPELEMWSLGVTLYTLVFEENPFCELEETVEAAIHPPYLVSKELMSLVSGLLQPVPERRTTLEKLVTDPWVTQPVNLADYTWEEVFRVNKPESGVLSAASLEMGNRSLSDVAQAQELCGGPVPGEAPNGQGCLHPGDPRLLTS
The experiment in a line: HotSpot in vitro kinase radiometric assay. The conditions noted are these: PASK, 10uM, ATP 50 uM, Data 1, Data 2; for remaining activity at 10 µM: read-out: % Enzyme Activity (relative to DMSO controls). The assay is classed as biochemical. An excerpt:
(§1) Accordingly, we selected five additional representative HSP90 inhibitors, at least one from each chemical class, including both synthetic inhibitors and natural products.
(§2) Accordingly, we screened the hit compound and the two leads for kinase off-target inhibition using the 16-kinase panel and the same in vitro catalytic assay used previously.
(§3) This radioisotope binding assay was designed to directly detect the true product without the use of modified substrates, coupling enzymes, or detection antibodies thus enabling to directly measure inhibition of catalytic activity. Test or control compounds were incubated with kinase, substrate, cofactors, and radioisotope-labeled ATP (32P-ɣ-ATP or 33P-ɣ-ATP). The reaction mixtures were then spotted onto filter papers, which bind the radioisotope-labeled catalytic product.

The target in the next assay is T4, TRKA (Homo sapiens, UniProt P04629).
T4 construct: purchased Reaction Biology (HotSpot contract assay)
T4 sequence (P04629 33-796): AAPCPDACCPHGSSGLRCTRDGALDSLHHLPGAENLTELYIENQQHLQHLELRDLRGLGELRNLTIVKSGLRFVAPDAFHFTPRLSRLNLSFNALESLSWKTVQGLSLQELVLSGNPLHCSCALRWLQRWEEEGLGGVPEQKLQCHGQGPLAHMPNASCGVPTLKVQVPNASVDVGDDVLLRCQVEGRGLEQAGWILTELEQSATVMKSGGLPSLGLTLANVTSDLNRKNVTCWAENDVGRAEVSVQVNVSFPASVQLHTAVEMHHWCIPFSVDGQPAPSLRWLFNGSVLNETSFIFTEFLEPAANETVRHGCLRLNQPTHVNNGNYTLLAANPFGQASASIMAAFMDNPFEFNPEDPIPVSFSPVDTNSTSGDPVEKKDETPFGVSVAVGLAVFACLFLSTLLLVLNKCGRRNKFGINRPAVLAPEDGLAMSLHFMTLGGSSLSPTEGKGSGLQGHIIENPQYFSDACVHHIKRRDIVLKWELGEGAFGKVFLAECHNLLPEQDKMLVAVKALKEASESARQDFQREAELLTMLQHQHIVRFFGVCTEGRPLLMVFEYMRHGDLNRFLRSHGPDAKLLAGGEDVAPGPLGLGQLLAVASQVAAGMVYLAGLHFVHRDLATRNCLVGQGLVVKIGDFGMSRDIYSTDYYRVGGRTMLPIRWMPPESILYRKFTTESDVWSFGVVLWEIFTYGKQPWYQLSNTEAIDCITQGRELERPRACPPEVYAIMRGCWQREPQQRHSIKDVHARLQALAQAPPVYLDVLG
In words: HotSpot in vitro kinase radiometric assay. The assay is classed as biochemical. As to conditions: TRKA, 10uM, ATP 100 uM, Data 1, Data 2; for remaining activity at 10 µM: read-out: % Enzyme Activity (relative to DMSO controls).
Excerpt: as §1, §2, §3

Another assay has as its target T5, TRKC (Homo sapiens, UniProt Q16288).
T5 construct: purchased Reaction Biology (HotSpot contract assay)
The experiment in a line: HotSpot in vitro kinase radiometric assay. The assay is classed as biochemical. The conditions noted are these: TRKC, 10uM, ATP 100 uM, Data 1, Data 2; for remaining activity at 10 µM: read-out: % Enzyme Activity (relative to DMSO controls).

The test system of a further assay is 16-kinase panel. The experiment in a line: 16-kinase panel screening, in vitro radiometric assay. The assay is classed as biochemical, human. The conditions noted are these: 10 μM.
In the next assay the target is T6, YES/YES1 (Homo sapiens, UniProt P07947).
T6 construct: purchased Reaction Biology (HotSpot contract assay)
T6 sequence (P07947 whole entry): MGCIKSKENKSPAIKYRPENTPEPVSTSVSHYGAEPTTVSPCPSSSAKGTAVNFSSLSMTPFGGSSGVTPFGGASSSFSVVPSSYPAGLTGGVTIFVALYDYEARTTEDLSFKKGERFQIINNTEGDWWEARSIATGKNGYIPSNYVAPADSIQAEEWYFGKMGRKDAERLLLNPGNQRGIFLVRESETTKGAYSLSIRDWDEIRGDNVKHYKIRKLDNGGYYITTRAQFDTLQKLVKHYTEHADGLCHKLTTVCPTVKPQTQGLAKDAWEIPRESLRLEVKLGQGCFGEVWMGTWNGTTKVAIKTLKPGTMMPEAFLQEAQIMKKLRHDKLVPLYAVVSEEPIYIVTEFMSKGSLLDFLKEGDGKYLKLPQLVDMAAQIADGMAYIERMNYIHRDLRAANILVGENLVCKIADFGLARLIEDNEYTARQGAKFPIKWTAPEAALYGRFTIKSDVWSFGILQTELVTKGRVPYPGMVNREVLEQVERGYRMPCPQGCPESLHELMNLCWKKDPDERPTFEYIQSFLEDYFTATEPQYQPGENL
In words: HotSpot in vitro kinase radiometric assay. The conditions noted are these: YES/YES1, 10uM, ATP 50 uM, Data 1, Data 2; for remaining activity at 10 µM: read-out: % Enzyme Activity (relative to DMSO controls). The assay is classed as biochemical.

For another assay, the target named is T7, FYN (Homo sapiens, UniProt P06241).
T7 construct: purchased Reaction Biology (HotSpot contract assay)
T7 sequence (P06241 whole entry): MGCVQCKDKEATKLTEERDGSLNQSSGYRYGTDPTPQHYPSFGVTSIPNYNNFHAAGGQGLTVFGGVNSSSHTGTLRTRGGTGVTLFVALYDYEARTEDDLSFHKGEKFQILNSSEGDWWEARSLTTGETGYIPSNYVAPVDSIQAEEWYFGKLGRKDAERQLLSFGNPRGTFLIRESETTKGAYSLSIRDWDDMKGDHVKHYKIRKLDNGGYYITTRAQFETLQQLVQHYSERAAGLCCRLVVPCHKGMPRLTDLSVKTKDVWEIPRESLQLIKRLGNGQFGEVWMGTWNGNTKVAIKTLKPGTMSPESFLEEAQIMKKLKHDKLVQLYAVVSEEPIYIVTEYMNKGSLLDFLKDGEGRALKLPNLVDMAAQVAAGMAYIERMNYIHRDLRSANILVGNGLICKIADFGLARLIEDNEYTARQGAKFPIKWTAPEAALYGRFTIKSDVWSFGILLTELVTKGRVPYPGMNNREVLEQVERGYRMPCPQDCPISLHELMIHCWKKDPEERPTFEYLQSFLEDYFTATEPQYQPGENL
In words: HotSpot in vitro kinase radiometric assay. The assay is classed as biochemical. The conditions noted are these: FYN, 10uM, ATP 30 uM, Data 1, Data 2; for remaining activity at 10 µM: read-out: % Enzyme Activity (relative to DMSO controls).

The target in the next assay is T8, LCK (Homo sapiens, UniProt P06239).
T8 construct: purchased Reaction Biology (HotSpot contract assay)
In words: HotSpot in vitro kinase radiometric assay. The conditions noted are these: LCK, 10uM, ATP 15 uM, Data 1, Data 2; for remaining activity at 10 µM: read-out: % Enzyme Activity (relative to DMSO controls). The assay is classed as biochemical.

A further assay deals with T9, c-Src (Homo sapiens, UniProt P12931).
T9 construct: purchased Reaction Biology (HotSpot contract assay)
In words: HotSpot in vitro kinase radiometric assay. The assay is classed as biochemical. The conditions noted are these: c-Src, 10uM, ATP 15 uM, Data 1, Data 2; for remaining activity at 10 µM: read-out: % Enzyme Activity (relative to DMSO controls). Here is the method: (§4) Accordingly, we selected five additional representative HSP90 inhibitors, at least one from each chemical class, including both synthetic inhibitors and natural products. […]
as §3

The target in a further assay is T10, PDK4/PDKH4 (Homo sapiens, UniProt Q16654).
T10 construct: purchased Reaction Biology (HotSpot contract assay)
The experiment in a line: HotSpot in vitro kinase radiometric assay. The assay is classed as biochemical. The conditions noted are these: PDK4/PDKH4, 10uM, ATP 30 uM, Data 1, Data 2; for remaining activity at 10 µM: read-out: % Enzyme Activity (relative to DMSO controls). The procedure:
as §4, §3

A further assay deals with T11, BLK (Homo sapiens, UniProt P51451).
T11 construct: purchased Reaction Biology (HotSpot contract assay)
T11 sequence (P51451 whole entry): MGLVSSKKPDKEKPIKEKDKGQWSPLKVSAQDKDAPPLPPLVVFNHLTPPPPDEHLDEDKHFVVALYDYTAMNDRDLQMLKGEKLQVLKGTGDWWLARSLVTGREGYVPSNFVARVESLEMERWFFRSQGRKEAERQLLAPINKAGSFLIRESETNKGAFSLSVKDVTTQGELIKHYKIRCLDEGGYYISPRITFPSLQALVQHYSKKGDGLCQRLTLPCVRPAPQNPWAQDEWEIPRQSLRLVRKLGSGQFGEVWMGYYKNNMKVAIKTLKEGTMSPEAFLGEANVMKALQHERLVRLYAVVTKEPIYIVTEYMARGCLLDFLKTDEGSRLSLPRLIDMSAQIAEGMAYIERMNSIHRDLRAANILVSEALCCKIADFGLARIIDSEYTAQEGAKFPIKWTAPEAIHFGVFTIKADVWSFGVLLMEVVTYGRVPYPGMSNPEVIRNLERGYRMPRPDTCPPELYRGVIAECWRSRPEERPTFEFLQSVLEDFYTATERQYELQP
In words: HotSpot in vitro kinase radiometric assay. As to conditions: BLK, 10uM, ATP 10 uM, Data 1, Data 2; for remaining activity at 10 µM: read-out: % Enzyme Activity (relative to DMSO controls). The assay is classed as biochemical. Here is the method:
as §4, §3

Another assay deals with T12, LYN B (Homo sapiens, UniProt P07948).
T12 construct: purchased Reaction Biology (HotSpot contract assay)
In words: HotSpot in vitro kinase radiometric assay. The assay is classed as biochemical. As to conditions: LYN B, 10uM, ATP 20 uM, Data 1, Data 2; for remaining activity at 10 µM: read-out: % Enzyme Activity (relative to DMSO controls). The procedure:
as §4, §3

The next assay concerns HSP90AB1. Also on record: method as in ChEMBL23 (accessed: 23/08/2018). The conditions noted are these: average of reported values; ref ChEMBL23 (accessed: 23/08/2018); cited from earlier work.
The target of another assay is T13, FGR (Homo sapiens, UniProt P09769).
T13 construct: purchased Reaction Biology (HotSpot contract assay)
T13 sequence (P09769 whole entry): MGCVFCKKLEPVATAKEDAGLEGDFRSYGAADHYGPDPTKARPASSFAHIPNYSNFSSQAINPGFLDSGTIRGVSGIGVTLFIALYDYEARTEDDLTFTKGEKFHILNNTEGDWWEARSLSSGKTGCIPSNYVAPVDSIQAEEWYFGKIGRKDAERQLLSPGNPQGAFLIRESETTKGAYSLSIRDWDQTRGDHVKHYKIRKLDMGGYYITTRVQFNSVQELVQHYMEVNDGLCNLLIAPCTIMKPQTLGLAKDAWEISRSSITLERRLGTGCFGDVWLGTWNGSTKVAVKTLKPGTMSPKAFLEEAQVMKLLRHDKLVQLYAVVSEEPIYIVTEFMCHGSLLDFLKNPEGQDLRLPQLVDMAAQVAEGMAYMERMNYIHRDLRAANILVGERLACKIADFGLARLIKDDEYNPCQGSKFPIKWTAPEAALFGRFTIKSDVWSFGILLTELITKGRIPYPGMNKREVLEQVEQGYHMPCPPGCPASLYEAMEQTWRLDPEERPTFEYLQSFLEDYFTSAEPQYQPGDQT
The experiment in a line: HotSpot in vitro kinase radiometric assay. The assay is classed as biochemical. The conditions noted are these: FGR, 10uM, ATP 50 uM, Data 1, Data 2; for remaining activity at 10 µM: read-out: % Enzyme Activity (relative to DMSO controls).

In a further assay the test system is 382 unique human kinases. The experiment in a line: biochemical. The assay is classed as biochemical. As to conditions: cutoff of >85% inhibition at 10 μM; luminespib and ganetespib large kinome panel, others 16-kinase panel.
The next assay has as its target T14, PDK2/PDHK2 (Homo sapiens, UniProt Q15119).
T14 construct: purchased Reaction Biology (HotSpot contract assay)
The experiment in a line: HotSpot in vitro kinase radiometric assay. As to conditions: PDK2/PDHK2, 10uM, ATP 15 uM, Data 1, Data 2. The assay is classed as biochemical. Here is the method:
as §4, §3

Setting [1] is: DDR1, 10uM, ATP 100 uM, Data 1, Data 2.

SMILES strings stand for the structures. Like-named read-outs stand apart in the source and are kept apart here.

T5 sequence (Q16288 32-839): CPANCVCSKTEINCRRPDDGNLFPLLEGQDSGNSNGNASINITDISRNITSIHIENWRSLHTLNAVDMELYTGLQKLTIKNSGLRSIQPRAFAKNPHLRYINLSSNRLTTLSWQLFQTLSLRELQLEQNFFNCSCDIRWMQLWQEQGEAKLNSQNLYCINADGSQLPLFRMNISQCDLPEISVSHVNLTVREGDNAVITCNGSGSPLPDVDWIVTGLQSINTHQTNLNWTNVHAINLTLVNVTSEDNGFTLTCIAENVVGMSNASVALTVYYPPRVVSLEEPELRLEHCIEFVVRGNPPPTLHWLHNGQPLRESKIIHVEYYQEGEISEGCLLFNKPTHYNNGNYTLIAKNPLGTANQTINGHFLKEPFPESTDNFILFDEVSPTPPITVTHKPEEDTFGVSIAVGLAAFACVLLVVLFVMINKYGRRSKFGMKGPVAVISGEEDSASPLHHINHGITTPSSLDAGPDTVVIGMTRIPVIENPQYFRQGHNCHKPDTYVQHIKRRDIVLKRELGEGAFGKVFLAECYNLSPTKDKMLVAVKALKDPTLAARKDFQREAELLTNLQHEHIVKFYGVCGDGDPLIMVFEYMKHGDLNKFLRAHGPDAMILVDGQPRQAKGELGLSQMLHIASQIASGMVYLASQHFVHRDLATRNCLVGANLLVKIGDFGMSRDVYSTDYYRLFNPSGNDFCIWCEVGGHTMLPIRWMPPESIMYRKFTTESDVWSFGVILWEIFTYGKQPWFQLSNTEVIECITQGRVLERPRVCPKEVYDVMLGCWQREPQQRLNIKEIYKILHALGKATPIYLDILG

For `COC1=C2C[C@@H](C)C[C@H](OC)[C@H](O)[C@@H](C)/C=C(\C)[C@H](OC(N)=O)[C@@H](OC)/C=C\C=C(/C)C(=O)NC(=CC1=O)C2=O` [Geldanamycin], the remaining activity at 10 µM on ABL2/ARG is 115%; on ABL1, 100%; on PEAK1 it was 108%; on DDR1 (setting [1]) it was 104%; on PASK, 106%; at TRKA it was 104%. The remaining activity at 10 µM was determined as 99.5% on TRKC; 103% on YES/YES1; 121% at FYN; 125% at LCK; 110% on c-Src; 100% on PDK4/PDKH4. Also, the results for the remaining activity at 10 µM at BLK, on LYN B and at FGR were 121%, 111% and 113%, respectively. The “pActivity, TRAP1” value in the assay on TRAP1 is 6.18. Further, the “activity against the 16-kinase panel” value in the assay on 16-kinase panel was “inactive”. Besides, the “pActivity, HSP90AB1” value with HSP90AB1 was 6.99.
Take `CC(C)c1cc(C(=O)N2Cc3ccc(CN4CCN(C)CC4)cc3C2)c(O)cc1O` [Onalespib]: the “% Enzyme Activity (relative to DMSO controls)” value at ABL2/ARG worked out at 104.31%; at ABL1, 103.3%; on PEAK1, 102.81%; at DDR1 (setting [1]), 87.99%; at PASK, 105.18%; at TRKA it was 99.91%. Besides, the “% Enzyme Activity (relative to DMSO controls)” value at TRKC was 89.51%; on YES/YES1 it was 99.53%; at FYN it was 106.38%; on LCK, 100%; on c-Src it was 97.5%; at PDK4/PDKH4, 96.17%. Besides, the “% Enzyme Activity (relative to DMSO controls)” value on PDK2/PDHK2 stood at 75.57%; on BLK, 107.96%; on LYN B, 109.85%; at FGR, 101.62%. In addition, the remaining activity at 10 µM at ABL2/ARG is 105%; on ABL1, 105%; on PEAK1 it was 104%; at DDR1 (setting [1]) it was 106%; on PASK, 100%; at TRKA, 105%. Moreover, the remaining activity at 10 µM was 93% at TRKC; 99.6% on YES/YES1; 108% at FYN; 100% at LCK; 98.7% on c-Src; 96.5% at PDK4/PDKH4. The remaining activity at 10 µM on PDK2/PDHK2 (read-out: % Enzyme Activity (relative to DMSO controls)) stood at 79.6%; on BLK it was 108%; at LYN B, 110%; at FGR it was 102%. In addition, the “number of off-target kinases experimentally identified, In vitro binding (KinomeSCAN)” value in the assay on 382 unique human kinases is given as 0. Besides, the “activity against the 16-kinase panel” value with 16-kinase panel is “inactive”. Moreover, the “pActivity, HSP90AB1” value in the assay with HSP90AB1 is 6.99.
As to `CN[C@@H]1C[C@H]2O[C@@](C)([C@@H]1OC)n1c3ccccc3c3c4c(c5c6ccccc6n2c5c31)C(=O)NC4` [Staurosporine], the “DDR1 - % activty” value on DDR1 is reported as 87.08%; on DDR1 (Stauro Conc. 1.25E-06 M), 0.78%; on DDR1 (Stauro Conc. 1.95E-08 M), 5.70%; on DDR1 (Stauro Conc. 2.00E-05 M), -0.41%; at DDR1 (Stauro Conc. 3.05E-10 M), 101.08%; on DDR1 (Stauro Conc. 4.88E-09 M) it was 36.56%. Also, the “DDR1 - % activty” value at DDR1 (Stauro Conc. 7.63E-11 M) worked out at 100.44%; on DDR1 (Stauro Conc. 7.81E-08 M), 1.19%. On DDR1 (DDR1, single replicate curves), the HILLSLOPE is -1.76.
